This is an account of results in patent publication US10731187B2, “Recombinant strain producing O-aminobenzoate and fermentative production of aniline from renewable resources via 2-aminobenzoic acid” (Covestro Deutschland AG, priority 2014, dated 2020).

Each structure is given as a SMILES string.

Data set [1] relates to B. subtilis. Nature of the data set: Shake flask growth (OD600) with supplementation of toxic substances. To be noted: 3 g/L oAB, pH 7 (MOPS), 100-mL shake flask, 25 h. Format: cell-based, Bacillus subtilis subsp. 168. The source says:
Several strains commonly used industrial biotechnology were investigated regarding their natural tolerance towards oAB and to organic solvents in question for later product extraction (e.g. 1-dodecanol or octanol). Furthermore, the influence of the used pH value was investigated. It was known from previous experiments that at least for E. coli the toxicity of aromatic compounds depends strongly on the pH value, probably because protonated acids can much more efficiently penetrate the cell membrane and accordingly their toxicity rises severely. The extraction of oAB in an organic phase is supposed to work best at low pH values, close to the isoelectric point of oAB. The most relevant host strains considered were: Escherichia coli K12, Corynebacterium glutamicum DSM 20300 (=ATCC 13032), Pseudomonas putida KT2440, Bacillus subtilis subsp. 168, Saccharomyces cerevisiae DSM 70449, and Pichia pastoris X33 (DSM 70382).
To investigate the chosen strains towards the mentioned characteristics shake flasks and small scale fermentation experiments were performed and the organisms were supplemented with the toxic substances (aminobenzoates, solvents) at differed concentrations, different pH values, and the behaviour of the strains was studied. […]

Data set [2] deals with Corynebacterium glutamicum. Nature of the data set: Small-scale fermentation (1 L fermenters, pH 7, glucose fed) with supplementation. To be noted: pH 7, fermenter. Type of data set: cell-based. The source says:
The results obtained in the shake flask experiments with C. glutamicum were reproduced in small-scale fermenters (FIG. 21). […]. The glucose-fed allowed the strain to grow to higher cell densities.
. This confirmed the results obtained in shake flasks (see FIG. 22). […] It was concluded that 1-dodecanol is a suitable oAB extraction solvent.
In a further experiment the concentration of oAB was increased to investigate the effect on the C. glutamicum strain. The four fermenters were hereto supplemented with 0 g/L, 15 g/L, 35 g/L and 80 g/L of oAB. […] The rest of the cultivation conditions was kept as described above. […] Cultures supplemented with 15 g/L oAB have shown an extensive lag-phase over 34-48 h before growth was recovered and cells entered the exponential phase (see FIG. 24). An oAB degradation during fermentation was again excluded by HPLC measurements of culture supernatants (data not shown).

In data set [3] the test system is Corynebacterium glutamicum. Description: Aminobenzoate stability in fermenter culture supernatants by HPLC-DAD. To be noted: HPLC-DAD 254 nm. An excerpt: It had to be excluded that the aminobenzoates were degraded by the organism and therefor the growth is restored after the prolonged lag-phase. To investigate the aminobenzoate stability in the fermenters culture supernatant samples were collected during the fermentation and analyzed by HPLC-DAD (254 nm) (see FIG. 23 and Example 3).
In a further experiment the concentration of oAB was increased to investigate the effect on the C. glutamicum strain. The four fermenters were hereto supplemented with 0 g/L, 15 g/L, 35 g/L and 80 g/L of oAB. […] The rest of the cultivation conditions was kept as described above. […] Cultures supplemented with 15 g/L oAB have shown an extensive lag-phase over 34-48 h before growth was recovered and cells entered the exponential phase (see FIG. 24). […]
An Agilent 1100 series HPLC-DAD system (with diode array detector; Agilent Technologies, Santa Clara (USA)) was used to quantify oAB concentrations in culture supernatants. […] The following gradient with a flow rate of 0.5 mL/min was applied: 0-1 min, 2% B; 1-2 min, 2-10% B; 2-12 min, 10-70% B; 12-23 min, 70-90% B; 23-25 min, 90-98% B, 25-27 min, 98% B; 27-27.5 min, 98%-2% B; 27.5-30 min, 2% B. The oAB concentration was determined from the signal integration at 254 nm (retention time: 18.9 min) using an external calibration curve.

`Nc1ccccc1C(=O)O` [oAB, 2-aminobenzoic acid]: the “growth (OD600)” value in data set [1] is “strongly decreased”; in data set [2] (7 g/L) it was “prolonged lag-phase but finally same cell densities were reached”; in data set [2] (35 g/L oAB (ammonium salt)), “growth inhibition”; in data set [2] (80 g/L oAB (ammonium salt), over 54 hours) it was “dying (lysis) of the cells”. Moreover, the “lag-phase before growth was recovered” value in data set [2] (15 g/L oAB (ammonium salt)) was in the range of 34 to 48 h. Moreover, the “degradation during cultivation / fermentation” value in data set [3] is “excluded”.
